Results on five compounds are retold here after paper PMC12037037 (Proceedings of the National Academy of Sciences of the …, 2025).

The test system of assay [1] is panel of 55 central nervous system targets. Nature of the assay: Competitive radioligand binding selectivity panel (Eurofins Discovery). As for the experimental part: Figure S3. Selectivity profiles for (+)-JRT and (–)-JRT across 55 central nervous system targets. The effects of (+)- JRT (10 μM) and (–)-JRT (10 μM) on a wide range of targets were assessed by Eurofins Discovery. Data represent % inhibition of the binding of a radioactively labeled ligand specific for each target. Assays were conducted in duplicate and the results were averaged.
Data Analysis and Statistics. Treatments were randomized, and data were analyzed by experimenters blinded to treatment conditions. Statistical analyses were performed using GraphPad Prism (version 10.0.3) unless noted otherwise.
All comparisons were planned prior to performing each experiment. No data were excluded. Data are represented as mean ± SEM, unless noted otherwise, with asterisks indicating *p < 0.05, **p < 0.01, ***p < 0.001, and ****p < 0.0001. Details of all statistical tests are shown in SI Appendix, Table S1. […]
Both (+)-JRT and (–)-
JRT were synthesized in-house and judged to be analytically pure based on NMR and LC-MS data. For cell culture experiments, VEH = 0.1% (agonist studies) or 0.2% (antagonist studies) molecular biology grade dimethyl sulfoxide (Sigma-Aldrich). For in vivo experiments, compounds were administered i.p. at 5 mL/kg using 0.9% saline as the vehicle, unless noted otherwise. VEH = USP grade saline (0.9%). Stock solutions for behavioral assays were prepared fresh before use.
Fumarate salts of (+)-JRT and (–)-JRT were used for all biological studies unless noted otherwise.
Animals. All experimental procedures involving animals were approved by the Institutional Animal Care and Use Committee (IACUC) at the University of California, Davis, the Salk Institute, Weill Cornell Medicine, McLean Hospital (Harvard Medical School), or the Contract Research Organization (CRO) where the study was performed. All procedures involving animals adhered to principles described in the National Institutes of Health Guide for the Care and Use of Laboratory Animals.
Animals were either obtained from Jackson Laboratory (Sacramento, C.A.) or bred in-house unless noted otherwise. Power analyses were conducted to ensure appropriate sample sizes for all experiments involving animals. Animals were housed 2–5 animals of the same sex per cage on a 12h light/dark cycle and were given ad libitum access to food and water unless noted otherwise. The University of California, Davis, the Salk Institute, and Weill Cornell Medicine are accredited by the Association for Assessment and Accreditation of Laboratory Animal Care International (AAALAC). Whenever possible, both sexes were utilized. However, a single sex was utilized in some cases when 1) a contract research organization had only […]
Radioligand Binding Selectivity Panel. Competitive radioligand binding studies for (+)-JRT (10 μM) and (–)-JRT (10 μM) were performed across a panel of receptors at Eurofins Discovery. Experiments were performed using the free bases of […]
radioligand and source of receptor (5,6,7,8,9,10,11,12).
Radioligand Binding Assays (5-HT2AR and 5-HT2CR). The 5-HT2AR and 5-HT2CR competitive radioligand binding assays were performed at Epics Therapeutics S.A. (Belgium, FAST-0505B) using conventional methods. Experiments were performed using the free bases of (+)-JRT and (–)-JRT. […] Nonspecific binding was determined by co-incubation with 200-fold excess of cold competitor DOI. […]

Assay [2] concerns C57BL/6J mice. Nature of the assay: Amphetamine-induced locomotion. Type of assay: in vivo. The following applies: VEH + AMPH 3 mg/kg. The procedure:
Figure S11. […] (A) Pretreatment with (+)-JRT (1 mg/kg,
(§1) IP) can block AMPH-induced hyperlocomotion in female, but not male, mice. (B) Pretreatment with (+)-JRT (1 mg/kg, IP) […]
(§2) AMPH = (+)-amphetamine; PCP = phencyclidine; VEH = vehicle; ns = not significant. *p < 0.05, **p < 0.01, ***p < 0.001, ****p < 0.0001, as compared to the comparator(s) indicated by a horizontal bar. See Methods and SI Appendix, Table S1 for full details on statistics.
(1 picture or pasted object on this page, not shown here)
Amphetamine-Induced Locomotion. The amphetamine-induced hyperlocomotion assay was performed using male and female C57BL/6J mice that were approximately 8 weeks old at the time of the experiments. Animals were first placed in the test arena (40 cm x 40 cm) for 15 min to obtain a basal reading of locomotion and habituate them to the testing arena.
Next, animals were administered (+)-JRT (1 mg/kg) or VEH (2.5 mL/kg, i.p) and placed back in the test arena. After 15 min, the animals were administered (+)-amphetamine (3 mg/kg) or VEH (2.5 mL/kg) and placed back in the test arena for 60 minutes. Locomotion during the entire experiment was quantified using ANYmaze Video Tracking System, version 7.07 (Stoelting Co.). The test arena was cleaned thoroughly with 70% ethanol between trials. […]
(§3) Reads were aligned to the GRCm39 genome assembly using STAR, processed with Picard, and counted with the Subread software. Transcript inclusion criteria consisted of a minimum raw expression level of 25 transcripts in a minimum of 4 samples. Surrogate variable analysis was conducted with the sva package 2023 release v3.5.0 in R and normalization and differential expression analysis was performed with DESeq2 v4.3 with a baseMean threshold of 10. Heatmaps were created with the pheatmap v1.0.12 with sample-wise z-scores plotted and both row and column grouping allowed using pearson's distances and ward.D for clustering. Gene-wise selection criteria for heatmaps were a baseMean expression threshold of 50 to focus on robustly expressed genes, p value < 0.05, and presence in the top 250 genes sorted by absolute value of log2FC. Additionally, z score was capped at 2 for visualization purposes. Schizophrenia gene sets were extracted from a recent TWAS study (30).
(§4) For Figure S8G, the TWAS set was filtered for FDR < 0.01. Permutation testing was conducted to quantify the overlap of top genes from schizophrenia TWAS with the perm_test function from the bulkWarehouse package 2023 release v1.2.7.
(§5) Briefly, the intersection of top differentially expressed genes and top TWAS genes is compared to an empirical distribution created by calculating the intersection with our top DEGs when randomly sampling candidate genes from our dataset equal to the size of the TWAS sample. […]

The subject of assay [3] is cultured rat embryonic cortical neurons. Kind of assay: Neuritogenesis assay (Sholl analysis, DIV6). Type of assay: cell-based. The following applies: 1 µM, DIV6, mean ± SEM.
Experimental: Figure S8. […] (A) Sholl analysis of embryonic day 18 (E18) rat cortical
(D) Area under the curves of the Sholl plots
N values are shown within the bars. VEH =
Neuritogenesis Assays. Neuritogenesis Assays were performed as previously described (17) with slight modifications.
Briefly, 96 well plates were coated with poly-D-lysine and approximately 15,000 cells/well. Neurons were treated after 3 days in vitro (DIV3) for 1 h followed by a complete media change. Cells were incubated for an additional 3 days before fixing and staining for MAP2 on DIV6. Neurites were visualized using a chicken anti-MAP2 antibody (1:10,000; EnCor, CPCA-MAP2) and an anti-chicken IgG secondary antibody conjugated to Alexa Fluor 488 (Life Technologies, 1:500). Plates were imaged in DPBS on a Thermo Scientific CellInsight CX7 High-Content Screening Platform at 20x (N.A. = 0.45). Images were analyzed using the Simple Neurite Tracer and Sholl analysis plug-ins for ImageJ Fiji (version 1.51N). Sholl analysis circle radii = 2 µm increments. All images were taken and analyzed by an experimenter blinded to treatment conditions.
Assay [4] relates to male Sprague Dawley rats. Nature of the assay: Rat forced swim test (FST). The class given is in vivo. Conditions: 10mg/kg IP, 24 h after administration. The procedure: as §3, §4
Briefly, the intersection of top differentially expressed genes and top TWAS genes is compared to an empirical distribution created by calculating the intersection with our top DEGs when randomly sampling candidate genes from our dataset equal to the size of the TWAS sample. Selection criteria from the TWAS include an expression level of 25 transcripts in a minimum of 4 samples in our dataset, FDR < 0.01 from the TWAS and top 250 sorted by absolute value of log2FC. Selection criteria from our gene set were an expression level of 25 transcripts in a minimum of 4 samples, p value < 0.1 and top 250 sorted by absolute value of log2FC.
Rat Forced Swim Test (FST). This study was performed by Psychogenics (Paramus, NJ). Male Sprague Dawley rats were purchased from Envigo (Indianapolis, IN), and were 8 weeks old at the time of the experiments. Upon receipt, they were assigned unique identification numbers (tail marked) and group housed in ventilated cages with 3 rats per cage. All animals […]
remained housed in groups of three for the remainder of the study. All rats were acclimated to the colony room for up to one week prior to dosing. During the period of acclimation, rats were examined and handled daily, and weighed to assure adequate health and suitability. The room temperature was maintained between 20 °C and 23 °C with a relative humidity of 30%–70%. Lab Rodent Diet 5001 (W.F. Fisher, Cat # 11015) and water were provided ad libitum. Animals were randomly assigned across treatment groups. All testing was performed during the light phase of the light/dark cycle. Behavioral testing was conducted according to established protocols approved by the IACUC committee and PGI Standard Operation Procedures (SOP). Each forced swim chamber was constructed of clear acrylic (height = 40 cm; diameter = 20.3 cm). Only one rat was placed in the swim chamber at a time for each swim test. The water was changed and the chamber cleaned between each animal. The water depth was 16 cm in the first swim session (pre-test) and 30 cm in the second swim session (test). The water was maintained at 23 °C ± 1 °C for all swim sessions. At the end of each swim test rats were dried with paper towels and returned to the home cage. All animals were carefully monitored to ensure their safety in the swim test and any animal unable to maintain a posture with its nose above water was immediately removed from the water and not used further in the study. Animals were first subjected to a pre-test for 15 min. Immediately after the pre-test, they were administered compounds or VEH via i.p. injection (1 ml/kg). Racemic ketamine hydrochloride (10 mg/kg) was used as a positive control. A salt correction factor of 1.36 was used when preparing formulations of (+)-JRT to ensure that the dose corresponded to that of the free base. […]

Assay [5] has as its system male Long Evans rats. Kind of assay: Probabilistic reward task (PRT) under chronic cold-water stress. The following applies: KET 10 mg/kg IP. Type of assay: in vivo.
Assay [6] has as its system male C57BL/6J mice. Kind of assay: PCP-induced locomotion (Psychogenics). Type of assay: in vivo. Conditions: VEH + PCP 5 mg/kg IP; VEH + VEH 11101 ± 1709. The procedure: as §1, §2
(1 picture or pasted object on this page, not shown here) […]
PCP-Induced Locomotion. The PCP-induced hyperlocomotion assay was performed by Psychogenics using male C57BL/6J mice that were approximately 8 weeks old at the time of the experiments. The experiment was performed during the animal’s light cycle phase. On the day of testing, animals were acclimated to the experimental room for at least 1 h prior to treatment. Animals were then administered with VEH or JRT (IP, 10 mL/kg) and placed in holding cages for 30 min, after which mice were placed in the open field chambers (27.3 x 27.3 x 30.3; Med Associates Inc., St Albans, VT). Baseline activity was recorded for 30 min. Next, mice received either PCP (5 mg/kg, IP, 10 ml/kg) or VEH and were returned to the open field chambers for a 60 min test session. Locomotion was assessed using consecutive infrared beam breaks. At the end of each session, the chambers were thoroughly cleaned. […]
as §3, §4, §5

On to `CCN(CC)C(=O)[C@H]1C=C2c3cccc4ccn(c34)C[C@@H]2N(C)C1` [(–)-JRT], for which the “Selectivity across panel of 55 central nervous system targets” value in assay [1] (10 μM, free bases) is “highly selective for a subset of serotonin receptors”. The “Affinity for dopamine, histamine, or adrenergic receptors” value in assay [1] (radioligand binding, unlike LSD) is “neither of these compounds exhibited affinity”.

Regarding `C[C@H](N)Cc1ccccc1` [AMPH, (+)-amphetamine, reference compound], the “Locomotion (Figure 11A Females)” value in assay [2] (female mice, VEH + VEH 101.9 ± 15.04) worked out at 418.5 ± 32.97. Besides, in assay [2] (male mice, VEH + VEH 59.80 ± 4.206), the “Locomotion (Figure 11A Males)” value was found to be 330.5 ± 74.31.

Regarding `CN1CCN(C2=Nc3cc(Cl)ccc3Nc3ccccc32)CC1` [CLZ, clozapine, reference compound], in assay [3] (VEH 1.000 ± 0.05010), the “Area under the curves of the Sholl plots (Figure S8D)” value is 1.045 ± 0.04563. Further, the “Total branches (Figure S8C)” value in assay [3] (VEH 2.325 ± 0.2641) stood at 3.280 ± 0.2858. In addition, the “Number of primary dendrites (Figure S8B)” value in assay [3] (VEH 6.275 ± 0.2292) was 7.620 ± 0.2586.

In the case of `CNC1(c2ccccc2Cl)CCCCC1=O` (centres unmarked) [Ketamine, ketamine, reference compound], the “Swimming (Figure 6B)” value in assay [4] (VEH 22.10 ± 1.929) was 34.10 ± 1.187. In addition, the “Immobility (Figure 6B)” value in assay [4] (VEH 37.20 ± 1.867, of 60 scored behaviors) amounted to 25.00 ± 1.265. Further, the “Response bias (log b) (Figure 6G)” value in assay [5] (Day 2, Day 1 0.120 ± 0.042) amounted to 0.330 ± 0.035; in assay [5] (Day 3, Day 1 0.120 ± 0.042), 0.304 ± 0.091; in assay [5] (Day 11, Day 1 0.120 ± 0.042) it was 0.266 ± 0.086; in assay [5] (Day 1 (stressed, before drug) 0.120 ± 0.042), 0.457 ± 0.070.

For the compound `c1ccc(C2(N3CCCCC3)CCCCC2)cc1` [PCP, phencyclidine, reference compound], the “Locomotion, infrared beam breaks (Figure 11B)” value in assay [6] amounted to 26552 ± 1179.
